{
  "source": "PubChem BioAssay AID1247",
  "about": "(Sanford-Burnham Center for Chemical Genomics, 2008)",
  "note": "pEC50: −log10 of the molar value. Activity calls are given as the source filed them.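 The calls were made as follows: active = EC50 below a set limit, with activity reproduced on retest from dry powder; inactive = the rest.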",
  "data": [
    {"test_system": "CSM 14.1 cells, thapsigargin ER-stress death rescue, ATPlite 24 h", "experiment": "potency of ER stress death protectors, SAR follow-up, CSM14.1 cells, ATP luminescence, benzodiazepine series (AID 1247)", "values": [
      {"compound": "CSc1ccc(C2Nc3ccccc3NC3=C2C(=O)CC(c2ccccc2)C3)cc1", "note": "(configuration not stated)", "pEC50": 4.86},
      {"compound": "Cc1ccc(C2Nc3ccccc3NC3=C2C(=O)CC(c2ccc(Cl)cc2)C3)cc1", "note": "(configuration not stated)", "pEC50": 5.01},
      {"compound": "COc1ccc(C2CC(=O)C3=C(C2)Nc2ccccc2NC3c2ccncc2)cc1OC", "note": "(configuration not stated)", "EC50": "> 100 µM (inactive)"},
      {"compound": "CCOc1cc(C2Nc3ccccc3NC3=C2C(=O)CC(c2ccc(OC)cc2)C3)cc(Br)c1O", "note": "(configuration not stated)", "pEC50": 4.75},
      {"compound": "CCOc1cc(C2Nc3ccccc3NC3=C2C(=O)CC(c2ccc(OC)cc2)C3)cc(Cl)c1O", "note": "(configuration not stated)", "pEC50": 4.63},
      {"compound": "CCN(CC)c1ccc(C2Nc3ccccc3NC3=C2C(=O)CC(c2ccccc2)C3)cc1", "note": "(configuration not stated)", "pEC50": 5.15},
      {"compound": "COc1ccc(C2CC(=O)C3=C(C2)Nc2ccccc2NC3c2ccccc2C(F)(F)F)cc1OC", "note": "(configuration not stated)", "pEC50": 4.76},
      {"compound": "COc1ccc(C2CC(=O)C3=C(C2)Nc2ccccc2NC3c2ccc(O)cc2)cc1", "note": "(configuration not stated)", "EC50": "> 100 µM (inactive)"},
      {"compound": "O=C1CC(c2ccccc2)CC2=C1C(c1cccc3ccccc13)Nc1ccccc1N2", "note": "(configuration not stated)", "pEC50": 4.80},
      {"compound": "COc1ccc(C2CC(=O)C3=C(C2)Nc2ccccc2NC3c2c(F)cccc2F)cc1", "note": "(configuration not stated)", "pEC50": 4.48},
      {"compound": "CCN(CC)c1ccc(C2Nc3ccccc3NC3=C2C(=O)CC(c2ccc(OC)cc2)C3)cc1", "note": "(configuration not stated)", "pEC50": 5.07},
      {"compound": "O=C1CC(c2ccccc2)CC2=C1C(c1c(F)cccc1Cl)Nc1ccccc1N2", "note": "(configuration not stated)", "pEC50": 4.74},
      {"compound": "COc1ccc(C2CC(=O)C3=C(C2)Nc2ccccc2NC3c2ccc3ccccc3c2)cc1", "note": "(configuration not stated)", "pEC50": 4.94},
      {"compound": "COc1ccc(C2CC(=O)C3=C(C2)Nc2ccccc2NC3c2ccc(F)c(F)c2)cc1", "note": "(configuration not stated)", "pEC50": 4.68},
      {"compound": "COc1ccc(C2CC(=O)C3=C(C2)Nc2ccccc2NC3c2ccccc2[N+](=O)[O-])cc1OC", "note": "(configuration not stated)", "pEC50": 4.43},
      {"compound": "COc1ccc(C2CC(=O)C3=C(C2)Nc2ccccc2NC3c2ccccc2Cl)cc1OC", "note": "(configuration not stated)", "pEC50": 4.39},
      {"compound": "CCCCOc1ccccc1C1Nc2ccccc2NC2=C1C(=O)CC(c1ccccc1)C2", "note": "(configuration not stated)", "pEC50": 4.88},
      {"compound": "O=C1CC(c2ccccc2)CC2=C1C(c1ccc(Cl)cc1Cl)Nc1ccccc1N2", "note": "(configuration not stated)", "EC50": "> 100 µM (inactive)"},
      {"compound": "COc1ccc(C2CC(=O)C3=C(C2)Nc2ccccc2NC3c2ccc(C)cc2)cc1OC", "note": "(configuration not stated)", "pEC50": 4.55},
      {"compound": "COc1ccc(C2CC(=O)C3=C(C2)Nc2ccccc2NC3c2ccc(-c3ccccc3)cc2)cc1OC", "note": "(configuration not stated)", "pEC50": 4.83},
      {"compound": "Cc1ccc(C2Nc3ccccc3NC3=C2C(=O)CC(c2ccccc2)C3)cc1", "note": "(configuration not stated)", "pEC50": 4.72},
      {"compound": "COc1ccc(C2Nc3ccccc3NC3=C2C(=O)CC(c2ccc(Cl)cc2)C3)cc1", "note": "(configuration not stated)", "pEC50": 4.96},
      {"compound": "COc1ccc(C2CC(=O)C3=C(C2)Nc2ccccc2NC3c2ccc(NC(C)=O)cc2)cc1", "note": "(configuration not stated)", "EC50": "> 100 µM (inactive)"},
      {"compound": "COc1ccc(C2CC(=O)C3=C(C2)Nc2ccccc2NC3c2ccccc2OC(C)C)cc1", "note": "(configuration not stated)", "pEC50": 4.75},
      {"compound": "CC(C)Oc1ccccc1C1Nc2ccccc2NC2=C1C(=O)CC(c1ccc(Cl)cc1)C2", "note": "(configuration not stated)", "pEC50": 5.22},
      {"compound": "COc1ccc(C2CC(=O)C3=C(C2)Nc2ccccc2NC3c2c(Cl)cccc2Cl)cc1", "note": "(configuration not stated)", "pEC50": 4.61},
      {"compound": "COc1ccc(C2CC(=O)C3=C(C2)Nc2ccccc2NC3c2cccc(C(F)(F)F)c2)cc1OC", "note": "(configuration not stated)", "pEC50": 4.78},
      {"compound": "COc1ccc(C2CC(=O)C3=C(C2)Nc2ccccc2NC3c2cccc(O)c2)cc1", "note": "(configuration not stated)", "EC50": "> 100 µM (inactive)"},
      {"compound": "COc1ccc(C2CC(=O)C3=C(C2)Nc2ccccc2NC3c2ccc(C(C)C)cc2)cc1", "note": "(configuration not stated)", "pEC50": 5.09},
      {"compound": "CCOc1cccc(C2Nc3ccccc3NC3=C2C(=O)CC(c2ccc(OC)cc2)C3)c1", "note": "(configuration not stated)", "pEC50": 4.69},
      {"compound": "CCCOc1ccc(C2Nc3ccccc3NC3=C2C(=O)CC(c2ccc(OC)c(OC)c2)C3)cc1", "note": "(configuration not stated)", "pEC50": 4.79},
      {"compound": "COc1ccc(C2CC(=O)C3=C(C2)Nc2ccccc2NC3c2cccc(Cl)c2)cc1", "note": "(configuration not stated)", "pEC50": 4.68},
      {"compound": "COc1ccc(C2CC(=O)C3=C(C2)Nc2ccccc2NC3c2cccc(Oc3ccccc3)c2)cc1OC", "note": "(configuration not stated)", "pEC50": 5.09},
      {"compound": "COc1ccc(C2CC(=O)C3=C(C2)Nc2ccccc2NC3c2ccccc2C)cc1OC", "note": "(configuration not stated)", "pEC50": 4.45},
      {"compound": "COc1ccc(C2CC(=O)C3=C(C2)Nc2ccccc2NC3c2cccc(Br)c2)cc1OC", "note": "(configuration not stated)", "pEC50": 4.77},
      {"compound": "COc1ccc(C2CC(=O)C3=C(C2)Nc2ccccc2NC3c2c(F)cccc2Cl)cc1", "note": "(configuration not stated)", "pEC50": 4.87},
      {"compound": "COc1ccc(C2CC(=O)C3=C(C2)Nc2ccccc2NC3c2cc(C)ccc2C)cc1", "note": "(configuration not stated)", "pEC50": 4.76}
    ]}
  ]
}
